One experiment relates to TSE cells. Description: 6-day cell proliferation assay, TSE. Type of experiment: cell-based, human. To be noted: Homo sapiens, 144 h; TSE, proliferation over 6 days. Here is the method:
(§1) Human breast cancer cell lines MCF7, BT-474, T-47D, MDA-MB-453, MDA-MB-231, Hs 578T, HCC38, SK-BR-3, and DU4475 were purchased from the American Type Culture Collection (ATCC) and no additional cell authentication was performed. The TSE human breast cancer cell line was supplied by Dr. Steven Abcouwer (University of Michigan). All breast cancer cells were cultured at 37° C. under a 5% CO2 atmosphere in RPMI 1640 medium containing 2 mM glutamine (Gibco) and supplemented with 10% fetal bovine serum (FBS) (Gibco). The 293T cell line (ATCC) used for generating lentivirus particles was cultured as above but using DMEM, high glucose (Gibco).
(§2) Culture medium was added to 12-well plates (1 ml/well) and wells were seeded with cells at Day 0 as follows. MCF7, T-47D, BT-474, HCC38 cells: […] cells/well. MDA-MB-453 and MDA-MB-231 cells: 1×10^4 cells/well. TSE and Hs 578T cells: 0.3×10^4 cells/well. After 16 hours, culture medium was replaced with fresh medium supplemented with appropriate concentrations of inhibitors and was subsequently replaced every 48 hours. On Day 6 cells were trypsinized and suspended in an appropriate volume of culture medium, and the total number of cells per well was determined using a hemocytometer or a TC20 Automated Cell Counter (Bio-Rad).

The test system of the next experiment is MDA-MB-231 cells. The experiment is described as follows: 6-day cell proliferation assay, MDA-MB-231. Type of experiment: cell-based, human. To be noted: Homo sapiens, 144 h; MDA-MB-231, proliferation over 6 days. Here is the method: as §1, §2
For another experiment, the system named is BT-474 cells. The experiment is described as follows: 6-day cell proliferation assay, BT-474. Type of experiment: cell-based, human. To be noted: Homo sapiens, 144 h; BT-474, proliferation over 6 days. Here is the method: as §1, §2
The subject of the next experiment is HCC38 cells. Description: 6-day cell proliferation assay, HCC38. Type of experiment: cell-based, human. To be noted: Homo sapiens, 144 h; HCC38, proliferation over 6 days. The method, then:
as §1, §2

For the next experiment, the system named is T-47D cells. The experiment is described as follows: 6-day cell proliferation assay, T-47D. Type of experiment: cell-based, human. To be noted: Homo sapiens, T47D, 144 h, proliferation over 6 days. The method, then:
as §1, §2

For experiment [1], the target named is T1, recombinant full-length human GLS2 (Homo sapiens, UniProt Q9UI32).
T1 construct: GLS2 (residues 38 to 602) in E. coli; inferred from pQE80 vector and Ni-NTA/imidazole purification; made in house; host or cells: E. coli BL21(DE3)
T1 sequence (Q9UI32 38-602): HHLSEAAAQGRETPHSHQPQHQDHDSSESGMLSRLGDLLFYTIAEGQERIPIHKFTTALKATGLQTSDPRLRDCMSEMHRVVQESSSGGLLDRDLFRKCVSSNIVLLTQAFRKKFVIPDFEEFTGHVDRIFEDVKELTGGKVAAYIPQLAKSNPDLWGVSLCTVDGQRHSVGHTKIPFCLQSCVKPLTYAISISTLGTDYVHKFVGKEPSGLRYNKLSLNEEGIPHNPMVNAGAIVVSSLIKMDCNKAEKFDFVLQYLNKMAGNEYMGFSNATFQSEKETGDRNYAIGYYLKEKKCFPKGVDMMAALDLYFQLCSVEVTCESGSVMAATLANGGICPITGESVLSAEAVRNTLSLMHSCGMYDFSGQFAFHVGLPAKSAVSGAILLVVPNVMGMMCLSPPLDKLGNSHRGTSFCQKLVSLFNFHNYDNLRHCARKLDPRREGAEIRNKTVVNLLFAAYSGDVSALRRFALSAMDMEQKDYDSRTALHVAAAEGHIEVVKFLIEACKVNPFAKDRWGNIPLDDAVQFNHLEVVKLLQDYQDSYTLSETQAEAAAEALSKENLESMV
Description: Real-time recombinant glutaminase activity assay, GLS2. Type of experiment: biochemical. Conditions: different concentrations. Here is the method: Real-time monitoring of glutaminase activity through NADH production was performed on a Cary Eclipse fluorescence spectrometer. The excitation and emission wavelengths were set at 340 nm and 460 nm, respectively. To a 1 ml cuvette, 900 μl of assay buffer was added, followed by 10 μl of GDH, 40 μl of 50 mM NAD and 20 μl of either DMSO or various dilutions of 968. Then, 100 μl of either 100 nM GAC or 500 nM GLS2 was added to this mixture and the fluorescence emission was monitored in real time. After 30 s, 200 μl of a mixture of glutamine and K2HPO4 was added such that the final concentrations of K2HPO4 and glutamine were 100 mM and 20 mM, respectively. The initial velocity of glutamine hydrolysis was obtained from the slopes of the linear portion of the kinetic curve.
Recombinant GAC and GLS2 were expressed in E. coli as described in Huang et al., “Characterization of the Interactions of Potent Allosteric Inhibitors with Glutaminase C, a Key Enzyme in Cancer Cell Glutamine Metabolism,” J. Biol. Chem. 293:3535-3545 (2018), which is hereby incorporated by reference in its entirety. Briefly, E. coli strain BL21(DE3) (Thermo Fisher Scientific) were transformed with vector pQE80-GAC-72-598 or with pQE80-GLS2-38-602 to express the processed forms of GAC and GLS2, respectively. For both constructs, expression was induced with 0.3 mM IPTG for 20 hours at 18° C., and cells were then harvested by centrifugation and lysed by sonication in binding buffer (500 mM NaCl, 50 mM Tris-HCl pH 8.5, 10 mM imidazole, 5 mM β-mercaptoethanol, 1 mM benzamidine chloride). The lysate was centrifuged, and the supernatant applied to a Ni-NTA column which was then washed with 100 column volumes of binding buffer followed by 10 volumes of wash buffer (500 mM NaCl, 50 mM Tris-HCl pH 8.5, 40 mM imidazole, 5 mM β-mercaptoethanol, 1 mM benzamidine chloride). Protein was eluted with 5 column volumes of elution buffer (500 mM NaCl, 300 mM imidazole-HCl pH 7.5, 5 mM β-mercaptoethanol, 1 mM benzamidine chloride). The eluate was centrifugally concentrated and then further purified by FPLC using a HiLoad 16/600 Superdex 200 column (GE Healthcare) with 150 mM NaCl, 5 mM Tris-HCl pH 7.5.

Another experiment has as its system MCF7 cells. The experiment is described as follows: 6-day cell proliferation assay, MCF7. Type of experiment: cell-based, human. Conditions: Homo sapiens, 144 h; MCF7, proliferation over 6 days. Here is the method:
as §1, §2

The next experiment relates to MDA-MB-453 cells. Description: 6-day cell proliferation assay, MDA-MB-453. To be noted: Homo sapiens, 144 h; MDA-MB-453, proliferation over 6 days. Type of experiment: cell-based, human. The method, then: as §1, §2
In the next experiment the test system is Hs 578T cells. Description: 6-day cell proliferation assay, Hs 578T. Type of experiment: cell-based, human. To be noted: Homo sapiens, 144 h, proliferation over 6 days. Here is the method: as §1, §2
The test system of a further experiment is breast cancer cell lines. To be noted: previously reported (Huang et al. 2018); cited from earlier work.
The subject of experiment [2] is GLS2 protein levels in TSE cells. Description: Western blot of GLS2 in TSE cells treated with hypomethylating agent. The experiment is classed as cell-based, human. Conditions: 48 hours. On the technique in general: In western blotting, separated proteins are transferred to a membrane and probed.
Description: Cells, or fractionated mitochondria and nuclei, were lysed with ice-cold lysis buffer (50 mM HEPES pH 8.0, 150 mM NaCl, 25 mM NaF, 1% (v/v) Triton X-100, 1 mM MgCl2, 50 mM β-glycerophosphate, 30 μg/ml leupeptin, 5 μg/ml aprotinin), and insoluble debris cleared by centrifugation at 4° C. Protein concentrations were determined by Bradford assay (Bio-Rad), and lysate was then boiled for 10 min in reducing SDS-sample buffer. Lysate proteins (20 μg total protein/lane, except for the cell fractionation experiment in which 5 μg total protein/lane was used) were then resolved on Novex 12% Tris-Glycine Mini Gels (Thermo Fisher Scientific) and transferred to PVDF membrane (PerkinElmer). Membranes were blocked in 7% BSA in Tris-Buffered Saline plus 0.05% TWEEN 20 (TBST) for 1 hour at room temperature and probed overnight at 4° C. in primary antibody solution in TBST (see Table 3 for antibody dilutions). They were then washed with TBST and incubated in TBST containing 25% (v/v) non-fat dry milk powder and anti-Rabbit or anti-Mouse secondary antibody (1:2500) for 1 hour. Finally, membranes were washed in TBST, and imaged using Western Lightning Plus-ECL (PerkinElmer) and HyBlot ES autoradiography film (Denville Scientific Inc.).

The structures appear in SMILES notation. Where only a bound is given, the exact number is not on record here.

For the compound `O=C(Cc1cccc(OC(F)(F)F)c1)Nc1ccc(CCCCc2nnc(NC(=O)Cc3ccccn3)s2)nn1` [CB-839], the EC50 is 41 nM in the experiment on TSE cells; 19 nM in the experiment with MDA-MB-231 cells; over 1000 nM in the experiment on BT-474 cells; 49 nM in the experiment on HCC38 cells; over 1000 nM with T-47D cells; over 1000 nM with MCF7 cells. Moreover, the EC50 in the experiment on MDA-MB-453 cells is over 1000 nM; in the experiment with Hs 578T cells, 31 nM. In experiment [1], the “inhibition of recombinant GLS2 activity” value is “resistance”.
In the case of `O=C(Cc1ccccc1)Nc1nnc(NC2CCN(c3nnc(NC(=O)Cc4ccccc4)s3)CC2)s1` [UPGL00004], the “selectivity profile, basal- versus luminal-subtype cells” value in the experiment on breast cancer cell lines was “same selectivity profile”.
On to `Nc1ncn([C@@H]2O[C@H](CO)[C@@H](O)[C@H]2O)c(=O)n1` [azacitidine], for which, in experiment [2], the GLS2 protein levels entry is listed as “increased”.

The term EC50 denotes the concentration giving half of the maximal effect. Lower therefore signals higher potency in that assay.

Values taken from patent US20250275964A1, “METHODS OF INHIBITING LIVER-TYPE GLUTAMINASE, GLS2” (CORNELL UNIVERSITY, priority 2019, published 2025).
